Experimental data taken from EP4745145A1, “SALT OF THIAZOLOPYRAZINE COMPOUND OR CRYSTAL THEREOF AND USE THEREOF” (Simcere Zaiming Pharmaceutical Co., Ltd., priority 2023, dated 2025).

Legend:
POLQ = biological target: T1, POLQ (Homo sapiens, UniProt O75417); test: POLQ enzyme activity inhibition experiment (ATPase, NADH-coupled); format: biochemical
T1 construct: the N-terminal active peptide segment of POLQ with ATPase activity (M1-N899) is co-incubated with the compound; purchased Pharmaron
Description: Brief introduction to experimental principle: After the N-terminal active peptide segment of POLQ with ATPase activity (M1-N899) is co-incubated with the compound, this peptide segment reacts with substrate dT50 under the action of ATP to generate ADP. The generated ADP then participates in the subsequent NADH oxidation-coupled enzymatic reaction, catalyzing the conversion of NADH to NAD^+. The reduction in the OD value of NADH at 340 nm was measured using the Envision microplate reader from Perkin Elmer to reflect enzyme activity.
Experimental methods: The POLQ enzyme was diluted to 100 nM with a reaction buffer (20 mM Tris HCl (pH 7.80), 80 mM KCl, 10 mM MgCl2, 1 mM DTT, 0.01% w/v bovine serum albumin, 0.01% v/v Tween-20, 5% v/v glycerol). The test compound was diluted to different concentrations with dimethyl sulfoxide (DMSO) using the Echo 650 pipetting system and transferred to a 384-well plate, 20 µL/well of 100 nM POLQ was added, and the mixture was incubated at room temperature for 15 min. […] After the 384-well plate was reacted at room temperature for 20 min, the OD value at 340 nm was read using an Envision microplate reader.
Inhibition rates were calculated and fitted using XLfit software to give the IC50 of the compound. […]

DLD-1 BRCA2 (-/-) cells = test: Inhibition of tumor cell proliferation (CTG, 7 days); format: cell-based
Description: (§1) Brief introduction to experimental principle: After the compound was co-incubated with tumor cells for 7 days, the ATP in viable cells was quantified using the CTG kit from Promega to reflect the effect of the compound on tumor cell proliferation.
(§2) Experimental methods: DLD-1 parent cells or DLD-1 BRCA2 (-/-) cells were diluted with an RPMI 1640 medium containing 10% FBS and then added to a 96-well plate (90 µL/well), with the number of cells being 600/well or 1200/well, respectively, and incubated overnight in an incubator at 37 °C with 5% CO2. The test compound was diluted to different concentrations with dimethyl sulfoxide (DMSO) and then added to a 96-well plate, such that, in the reaction system, the compound was serially diluted 4-fold from the final concentration of 25 µM. The concentration range of the compound was from 25 µM to 0.0004 µM, and the final concentration of DMSO was 0.25% v/v. After incubation for 7 days, 50 µL/well of CTG was added, and the mixture was incubated at room temperature for 10 min. The luminescence (Lum) signal value was read using an Envision microplate reader, and the inhibition rate and half inhibitory concentration (IC50) were calculated.
(§3) A Blank well and a DMSO well were set in the experiment. […] Inhibition rate = 100 × (Lummax−Lumcompound)/(Lummax−Lummin)% [formula] wherein Lummax refers to the luminescence signal value of the well containing cells and 0.25% v/v DMSO, and Lumcompound refers to the luminescence signal value of the well containing the compound and cells. Lummin refers to the luminescence signal value of the well containing the medium and 0.25% v/v DMSO.

DLD-1 parent cells = test: as above; format: cell-based; settings: Homo sapiens, DLD-1, 168 h; 7 days incubation
Description: as §1, §2, §3

T1 sequence (O75417 1-899): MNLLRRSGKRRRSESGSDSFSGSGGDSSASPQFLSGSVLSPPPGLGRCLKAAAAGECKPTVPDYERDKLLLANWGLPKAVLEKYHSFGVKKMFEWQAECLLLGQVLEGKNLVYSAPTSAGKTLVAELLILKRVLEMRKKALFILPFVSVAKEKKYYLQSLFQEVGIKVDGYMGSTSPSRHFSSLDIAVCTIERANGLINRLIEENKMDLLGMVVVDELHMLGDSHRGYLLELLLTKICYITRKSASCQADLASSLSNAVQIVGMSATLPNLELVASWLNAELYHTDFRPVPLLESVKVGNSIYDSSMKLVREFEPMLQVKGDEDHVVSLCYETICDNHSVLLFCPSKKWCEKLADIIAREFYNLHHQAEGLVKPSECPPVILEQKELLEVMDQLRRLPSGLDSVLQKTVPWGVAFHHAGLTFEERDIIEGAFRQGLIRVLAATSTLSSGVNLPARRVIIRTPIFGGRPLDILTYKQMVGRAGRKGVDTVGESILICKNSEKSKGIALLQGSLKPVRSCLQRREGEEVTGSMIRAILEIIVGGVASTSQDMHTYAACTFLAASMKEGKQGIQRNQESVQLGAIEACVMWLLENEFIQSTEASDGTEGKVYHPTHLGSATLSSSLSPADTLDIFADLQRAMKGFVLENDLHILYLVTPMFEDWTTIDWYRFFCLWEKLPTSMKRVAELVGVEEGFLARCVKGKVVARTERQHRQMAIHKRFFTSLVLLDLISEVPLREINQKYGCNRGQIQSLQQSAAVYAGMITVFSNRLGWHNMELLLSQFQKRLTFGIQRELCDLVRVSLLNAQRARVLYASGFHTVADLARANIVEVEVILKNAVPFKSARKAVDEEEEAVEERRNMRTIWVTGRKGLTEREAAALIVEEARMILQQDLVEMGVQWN

Structure (SMILES): COc1ccc(Cl)cc1-c1cc(C)ncc1C(=O)Nc1nc2ncc(-c3ccc(C#N)cc3)nc2s1 [Compound of formula I, 4-(5-chloro-2-methoxyphenyl)-N-[6-(4-cyanophenyl)thiazolo[4,5-b]pyrazin-2-yl]-6-methylnicotinamide]
- IC50 (POLQ): < 100 nM
- inhibitory effect on tumor cells with BRCA2 mutation (DLD-1 BRCA2 (-/-) cells): good inhibitory effect
- selectivity (DLD-1 BRCA2 (-/-) cells): good selectivity
- IC50 (DLD-1 BRCA2 (-/-) cells; Homo sapiens, DLD-1, 168 h, 7 days incubation): < 200 nM
- IC50 (DLD-1 parent cells): ≥ 10000 nM
